In patent US20090215884A1, “METHOD FOR WOUND HEALING” (priority 2005, published 2009):

System: epidermal keratinocytes
Assay: Keratinocyte extracellular matrix attachment
Assay type: cell-based, human
Protocol: Human, adult, epidermal keratinocytes, were purchased cryopreserved from Cascade Biologics Inc., Nottinghamshire, U.K. These cells (>500,000 viable cells/vial) were tested to be >70% viable, with the capacity to proliferate for at least 16 population doublings. The epidermal keratinocytes were cultured in serum-free, EpiLife® Medium (Cascade Biologics Inc.), supplemented with antibiotics (100 U/ml penicillin G sodium, […] streptomycin sulphate and 0.25 μg/ml amphotericin B) and EpiLife® Defined Growth Supplement (EDGS, consisting of purified bovine serum albumin, purified bovine transferring, hydrocortisone, recombinant human insulin-like growth factor type-1, prostaglandin E2 and recombinant human epidermal growth factor, Cascade Biologics Inc.). Epidermal keratinocytes cultures were maintained at 37° C., in a 5% CO2/95% air atmosphere, with the culture medium being changed every 2-3 days. Epidermal keratinocytes were used between 4-6 passages, for all experiments.
Prior to use, the PEP005/DMSO stock solution was removed from 4° C. storage and warmed to room temperature. […]

SMILES: C/C=C(/C)C(=O)O[C@H]1C(C)=C[C@]23C(=O)[C@@H](C=C(CO)[C@@H](O)[C@]12O)[C@H]1[C@@H](C[C@H]3C)C1(C)C [PEP005, ingenol-3-angelate]
- epidermal keratinocyte attachment to type I collagen (0, 01-10 μg/ml PEP005): significant dose-dependent stimulation
- epidermal keratinocyte attachment to plasma fibronectin (1-μg/ml PEP005): trend towards a possible stimulation
